Consider 30 compounds from patent US20250051338A1, “TYK2 DEGRADERS AND USES THEREOF” (Kymera Therapeutics, Inc., priority 2021, published 2025).

What all share (format): cell-based
Assay [1] has as its target T1, TYK2 (Homo sapiens, UniProt P29597). The experiment in a line: TYK2 degradation MSD assay in human PBMC cells. Set-up: endogenous in cells; host or cells: human PBMC. The note with it: 4 to 24 hours incubation, read-out: TYK2 MSD DC50 rating in human PBMC. In short, it runs like this:
(§1)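 Cells (0.4 million per well) were treated with a 9-point, 1:3 compound series from a top concentration of 1 to 10 μM for 4 to 24 hours at 37° C, then lysed in RIPA with protease/phosphatase inhibitors. Remaining TYK2 was quantified by sandwich MSD immunoassay; DC50 came from four-parameter nonlinear fits.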

Assay [2] addresses T1, TYK2. The assay is described as follows: TYK2 degradation MSD assay in EBV-B cells. Also noted: endogenous in cells; host or cells: EBV-B cells. The conditions noted are these: 4 to 24 hours incubation, read-out: TYK2 MSD DC50 rating in EBV-B. The essentials: as §1
Assay [3] addresses T1, TYK2. The experiment in a line: TYK2 degradation MSD assay in OCI-LY10 cells. The conditions noted are these: 4 to 24 hours incubation, read-out: TYK2 MSD DC50 rating in OCI-LY10. Set-up: endogenous in cells; host or cells: EBV-B cells. In short, it runs like this:
as §1

T1 sequence (P29597 whole entry): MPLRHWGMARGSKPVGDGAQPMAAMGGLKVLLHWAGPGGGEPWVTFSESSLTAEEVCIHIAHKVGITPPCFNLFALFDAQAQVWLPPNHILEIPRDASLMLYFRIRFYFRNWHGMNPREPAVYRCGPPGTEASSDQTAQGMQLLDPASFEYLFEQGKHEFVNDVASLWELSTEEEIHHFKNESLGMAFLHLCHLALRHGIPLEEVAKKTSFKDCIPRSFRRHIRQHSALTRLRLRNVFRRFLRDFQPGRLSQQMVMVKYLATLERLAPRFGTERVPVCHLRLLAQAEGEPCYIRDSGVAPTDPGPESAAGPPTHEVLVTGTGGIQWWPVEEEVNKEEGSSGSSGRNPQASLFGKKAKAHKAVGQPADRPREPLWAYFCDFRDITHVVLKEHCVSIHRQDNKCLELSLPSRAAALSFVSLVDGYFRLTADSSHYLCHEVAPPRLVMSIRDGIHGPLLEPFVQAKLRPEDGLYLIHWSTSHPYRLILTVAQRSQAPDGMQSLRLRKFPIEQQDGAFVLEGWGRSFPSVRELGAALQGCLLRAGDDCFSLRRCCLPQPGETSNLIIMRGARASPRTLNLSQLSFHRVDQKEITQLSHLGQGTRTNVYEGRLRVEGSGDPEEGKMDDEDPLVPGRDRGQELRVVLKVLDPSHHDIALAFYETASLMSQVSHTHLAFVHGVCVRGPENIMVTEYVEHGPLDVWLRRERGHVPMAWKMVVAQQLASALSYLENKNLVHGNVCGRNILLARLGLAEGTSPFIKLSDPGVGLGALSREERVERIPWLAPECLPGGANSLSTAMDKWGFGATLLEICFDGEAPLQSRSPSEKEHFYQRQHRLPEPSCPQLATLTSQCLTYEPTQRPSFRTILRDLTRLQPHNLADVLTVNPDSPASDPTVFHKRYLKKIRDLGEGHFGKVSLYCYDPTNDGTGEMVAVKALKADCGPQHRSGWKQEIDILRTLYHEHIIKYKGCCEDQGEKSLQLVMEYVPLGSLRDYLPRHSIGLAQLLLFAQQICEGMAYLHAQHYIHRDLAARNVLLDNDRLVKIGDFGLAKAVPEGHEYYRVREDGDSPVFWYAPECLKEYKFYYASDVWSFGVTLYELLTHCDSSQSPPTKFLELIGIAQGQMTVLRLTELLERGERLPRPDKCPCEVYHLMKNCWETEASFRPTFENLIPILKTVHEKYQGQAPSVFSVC

Turning to `CNc1cc(Nc2cccc(-c3ccc(CN4CC5(CCN(c6ccc(C7CCC(=O)NC7=O)cc6)CC5)C4)cn3)c2)nn2c(C(=O)N[C@@H]3C[C@@H]3F)cnc12` (stereo partly drawn) [Example K500], the DC50 on TYK2 [1], on TYK2 [2] and on TYK2 [3] was greater than 0.1 µM throughout.

`CNc1cc(N2CCCc3c(-c4ccc(CC5CCC(c6ccc(-c7ccc8c(c7)n(C)c(=O)n8C7CCC(=O)NC7=O)cc6)CC5)cn4)cccc32)nn2c(C(=O)N[C@@H]3C[C@@H]3F)cnc12` (stereo partly drawn) [Example K501]: the half-maximal degradation concentration (DC50) was greater than 0.1 µM at TYK2 [1], greater than 0.1 µM at TYK2 [2] and 0.01 to 0.1 µM at TYK2 [3].

Regarding `Cc1cc(Nc2cccc(-c3ccc(CN4CCN(c5ccc(-c6ccc7c(c6)n(C)c(=O)n7C6CCC(=O)NC6=O)cc5)CC4)cn3)c2)nn2c(C(=O)N[C@@H]3C[C@@H]3F)cnc12` (stereo partly drawn) [Example K502], the 50% degradation concentration (DC50) on TYK2 [1] is greater than 0.1 µM; on TYK2 [2], greater than 0.1 µM; on TYK2 [3], 0.001 to 0.01 µM.

As to `CNc1cc(Nc2cccc(N3CCC(CN4CCN(c5cccc6c(C7CCC(=O)NC7=O)cncc56)CC4)CC3)c2)nn2c(C(=O)N[C@@H]3C[C@@H]3F)cnc12` (stereo partly drawn) [Example K503], the DC50 on TYK2 [1], at TYK2 [2] and on TYK2 [3] was greater than 0.1 µM each time.

`CNc1cc(Nc2cccc(-c3ccc(CN4CCN(CCCOc5ccc(C6CCC(=O)NC6=O)cc5)CC4)cn3)c2)nn2c(C(=O)N[C@@H]3C[C@@H]3F)cnc12` (stereo partly drawn) [Example K504]: the DC50 is greater than 0.1 µM on TYK2 [1], less than 0.001 µM on TYK2 [2] and greater than 0.1 µM on TYK2 [3].

As for `CNc1cc(N2CCc3c(-c4ccc(CN5CCN(c6ccc(-c7ccc8c(c7)n(C)c(=O)n8C7CCC(=O)NC7=O)cc6)CC5)cn4)cccc32)nn2c(C(=O)N[C@@H]3C[C@@H]3F)cnc12` (stereo partly drawn) [Example K505], the half-maximal degradation concentration (DC50) on TYK2 [1] is greater than 0.1 µM; at TYK2 [2], 0.01 to 0.1 µM; on TYK2 [3], 0.001 to 0.01 µM.

Regarding `CNc1cc(Nc2cccc(-c3ccc(CN4CC5(CCN(C(=O)c6ccc(Cl)c(N7CCC(=O)NC7=O)c6)CC5)C4)cn3)c2)nn2c(C(=O)N[C@@H]3C[C@@H]3F)cnc12` [Example K506], the figures for the half-maximal degradation concentration (DC50) on TYK2 [1], on TYK2 [2] and at TYK2 [3] were greater than 0.1 µM, 0.01 to 0.1 µM and 0.001 to 0.01 µM, respectively.

For `CNc1cc(Nc2cccc(-c3ccc(CN4CCC(CCc5cccc6c5n(C)c(=O)n6C5CCC(=O)NC5=O)CC4)cn3)c2)nn2c(C(=O)N[C@@H]3C[C@@H]3F)cnc12` (stereo partly drawn) [Example K507], the DC50 on TYK2 [1] was greater than 0.1 µM; at TYK2 [2], 0.001 to 0.01 µM; at TYK2 [3], less than 0.001 µM.

With `CNc1cc(Nc2cccc(-c3ccc(CN4CCN(c5ccc(-c6ccc7c(c6)n(C)c(=O)n7C6CCC(=O)NC6=O)cc5)CC4)cn3)c2)nc2c(C(=O)N[C@@H]3C[C@@H]3F)cnn12` (stereo partly drawn) [Example K508], the half-maximal degradation concentration (DC50) on TYK2 [1] was greater than 0.1 µM; on TYK2 [2] it was 0.001 to 0.01 µM; on TYK2 [3], less than 0.001 µM.

On to `Cn1c(=O)n(C2CCC(=O)NC2=O)c2ccc(-c3ccc(N4CCN(Cc5ccc(-c6cccc(Nc7cc(NC8CC8)n8ncc(C(=O)N[C@@H]9C[C@@H]9F)c8n7)c6)nc5)CC4)cc3)cc21` (stereo partly drawn) [Example K509], for which the DC50 was greater than 0.1 µM at TYK2 [1], 0.001 to 0.01 µM at TYK2 [2] and 0.001 to 0.01 µM at TYK2 [3].

For the compound `CNc1cc(Nc2cccc(-c3ccc(CN4CC5(CCN(c6cccc7c6n(C)c(=O)n7C6CCC(=O)NC6=O)CC5)C4)cn3)c2)nn2c(C(=O)N[C@@H]3C[C@@H]3F)cnc12` (stereo partly drawn) [Example K510], the DC50 is greater than 0.1 µM at TYK2 [1], 0.001 to 0.01 µM at TYK2 [2] and less than 0.001 µM at TYK2 [3].

As for `CNC1=CC(Nc2cccc(-c3ccc(CN4CC5(CCN(c6cccc7c(C8CCC(=O)NC8=O)cccc67)CC5)C4)cn3)c2)=NC2C(C(=O)N[C@@H]3C[C@@H]3F)=CN=C12` (stereo partly drawn) [Example K512], the DC50 on TYK2 [1] was greater than 0.1 µM; on TYK2 [2], less than 0.001 µM; at TYK2 [3], 0.001 to 0.01 µM.

Consider `CNc1cc(Nc2cccc(-c3ccc(CN4CCN(c5ccc(-c6cccc7c6n(C)c(=O)n7C6CCC(=O)NC6=O)cc5)CC4)cn3)c2)nn2c(C(=O)N[C@@H]3C[C@@H]3F)cnc12` (stereo partly drawn) [Example K513], for which the 50% degradation concentration (DC50) is greater than 0.1 µM on TYK2 [1], 0.001 to 0.01 µM at TYK2 [2] and 0.001 to 0.01 µM at TYK2 [3].

Consider `CNc1cc(Nc2cccn(-c3ccc(CN4CCN(CC5CCN(c6ccc(-c7ccc8c(c7)n(C)c(=O)n8C7CCC(=O)NC7=O)cc6)CC5)CC4)cn3)c2=O)nn2c(C(=O)N[C@@H]3C[C@@H]3F)cnc12` (stereo partly drawn) [Example K514], for which the 50% degradation concentration (DC50) is greater than 0.1 µM on TYK2 [1], greater than 0.1 µM on TYK2 [2] and less than 0.001 µM at TYK2 [3].

Take `Cn1c(=O)n(C2CCC(=O)NC2=O)c2ccc(-c3ccc(N4CC5(CN(Cc6ccc(-c7cccc(Nc8ccc9ncc(C(=O)NC%10CC%10)n9n8)c7)nc6)C5)C4)cc3)cc21` (stereo not drawn) [Example K515]: the 50% degradation concentration (DC50) was greater than 0.1 µM at TYK2 [1], 0.001 to 0.01 µM at TYK2 [2] and 0.001 to 0.01 µM on TYK2 [3].

As to `CNC1=CC(Nc2cccc(-c3ccc(CN4CCN(c5ccc(-c6cccc7c(N8CCC(=O)NC8=O)cncc67)cc5)CC4)cn3)c2)=NN2C1=NCC2C(=O)N[C@@H]1C[C@@H]1F` (stereo partly drawn) [Example K516], the DC50 at TYK2 [1] was greater than 0.1 µM; on TYK2 [2], 0.001 to 0.01 µM; on TYK2 [3], greater than 0.1 µM.

On to `CNc1cc(Nc2cccc(-c3ccc(CN4CCC(N5CC(N6CCN(c7cccc8c7n(C)c(=O)n8C7CCC(=O)NC7=O)CC6)C5)CC4)cn3)c2)nn2c(C(=O)N[C@@H]3C[C@@H]3F)cnc12` (stereo partly drawn) [Example K517], for which the values for the DC50 at TYK2 [1], at TYK2 [2] and on TYK2 [3] were greater than 0.1 µM, greater than 0.1 µM and less than 0.001 µM, respectively.

As for `CNc1cc(Nc2cccc(N3CCC(CN4CCN(c5ccc(-c6ccc7c(c6)n(C)c(=O)n7C6CCC(=O)NC6=O)cc5)CC4)CC3)c2)nn2c(C(=O)N[C@@H]3C[C@@H]3F)cnc12` (stereo partly drawn) [Example K518], the DC50 is greater than 0.1 µM at TYK2 [1], greater than 0.1 µM on TYK2 [2] and less than 0.001 µM on TYK2 [3].

Turning to `CNc1cc(Nc2cccn(-c3ccc(CN4CC5(C4)CN(c4ccc(-c6ccc7c(c6)n(C)c(=O)n7C6CCC(=O)NC6=O)cc4)C5)cn3)c2=O)nn2c(C(=O)N[C@@H]3C[C@@H]3F)cnc12` (stereo partly drawn) [Example K519], the DC50 at TYK2 [1] is greater than 0.1 µM; at TYK2 [2], greater than 0.1 µM; on TYK2 [3] it was less than 0.001 µM.

`CNc1cc(Nc2cccc(N3CCC(CN4CC5(CCN(c6cccc7c6n(C)c(=O)n7C6CCC(=O)NC6=O)CC5)C4)CC3)c2)nn2c(C(=O)N[C@@H]3C[C@@H]3F)cnc12` (stereo partly drawn) [Example K520]: the DC50 at TYK2 [1] is greater than 0.1 µM; at TYK2 [2], greater than 0.1 µM; on TYK2 [3] it was less than 0.001 µM.

On to `CNc1cc(Nc2cccc(-c3ccc(CN4CC5(C4)CN(c4ccc(-c6ccc7c(c6)n(C)c(=O)n7C6CCC(=O)NC6=O)cc4)C5)cn3)c2)nn2c(C(=O)N[C@@H]3C[C@@H]3F)cnc12` (stereo partly drawn) [Example K522], for which the DC50 was greater than 0.1 µM at TYK2 [1], greater than 0.1 µM on TYK2 [2] and less than 0.001 µM at TYK2 [3].

Take `CNc1cc(Nc2cccc(-c3ccc(CN4CCN(c5ccc6c(c5)n(C)c(=O)n6C5CCC(=O)NC5=O)CC4)cn3)c2)nn2c(C(=O)N[C@@H]3C[C@@H]3F)cnc12` (stereo partly drawn) [Example K523]: the 50% degradation concentration (DC50) on TYK2 [1] was greater than 0.1 µM; on TYK2 [2], greater than 0.1 µM; at TYK2 [3], 0.001 to 0.01 µM.

On to `Cn1c(=O)n(C2CCC(=O)NC2=O)c2ccc(N3CCN(C4CN(C5CCN(Cc6ccc(-c7cccc(Nc8ccc9ncc(C(=O)NC%10CC%10)n9n8)c7)nc6)CC5)C4)CC3)cc21` (stereo not drawn) [Example K524], for which the DC50 at TYK2 [1], on TYK2 [2] and at TYK2 [3] was greater than 0.1 µM throughout.

Regarding `CNc1cc(N2CCc3c(-c4ccc(CN5CC(C6CCN(C(=O)c7ccc(Cl)c(N8CCC(=O)NC8=O)c7)CC6)C5)cn4)cccc32)nn2c(C(=O)N[C@@H]3C[C@@H]3F)cnc12` [Example K525], the values for the DC50 at TYK2 [1], on TYK2 [2] and at TYK2 [3] were greater than 0.1 µM, greater than 0.1 µM and less than 0.001 µM, respectively.

For the compound `CCNC(=O)c1cnc2c(NC)cc(Nc3cccc(-c4ccc(CN5CCN(c6ccc(-c7ccc8c(c7)n(C)c(=O)n8C7CCC(=O)NC7=O)cc6)CC5)cn4)c3OC)nn12` (stereo not drawn) [Example K526], the half-maximal degradation concentration (DC50) on TYK2 [1] was greater than 0.1 µM; on TYK2 [2], greater than 0.1 µM; at TYK2 [3], 0.001 to 0.01 µM.

For `CNC(=O)c1cnc2c(NC)cc(Nc3cccc(-c4ccc(CN5CCN(c6ccc(-c7ccc8c(c7)n(C)c(=O)n8C7CCC(=O)NC7=O)cc6)CC5)cn4)c3OC)nn12` (stereo not drawn) [Example K527], the values for the DC50 on TYK2 [1], at TYK2 [2] and at TYK2 [3] were greater than 0.1 µM, greater than 0.1 µM and 0.001 to 0.01 µM, respectively.

On to `CNc1cc(Nc2cccc(-c3ccc(CN4CCN(c5ccc(-c6ccc7c(c6)n(C)c(=O)n7C6CCC(=O)NC6=O)cc5)CC4)cn3)c2OC)nn2c(C(=O)NC(C)C)cnc12` (stereo not drawn) [Example K528], for which the DC50 on TYK2 [1] was greater than 0.1 µM; at TYK2 [2] it was greater than 0.1 µM; on TYK2 [3] it was 0.001 to 0.01 µM.

For the compound `CNc1cc(-c2ccc(-c3ccc(CN4CCN(c5ccc(-c6ccc7c(c6)n(C)c(=O)n7C6CCC(=O)NC6=O)cc5)CC4)cn3)cc2)nn2c(C(=O)N[C@@H]3C[C@@H]3F)cnc12` (stereo partly drawn) [Example K529], the results for the half-maximal degradation concentration (DC50) at TYK2 [1], at TYK2 [2] and at TYK2 [3] were greater than 0.1 µM, greater than 0.1 µM and 0.001 to 0.01 µM, respectively.

As to `CNc1cc(-c2ccc(C3CCN(CC4CCN(c5ccc(-c6ccc7c(c6)n(C)c(=O)n7C6CCC(=O)NC6=O)cc5)CC4)CC3)cc2)nn2c(C(=O)N[C@@H]3C[C@@H]3F)cnc12` (stereo partly drawn) [Example K530], the DC50 on TYK2 [1], on TYK2 [2] and on TYK2 [3] was greater than 0.1 µM throughout.

On to `CNc1cc(Nc2cccnc2OC2CCN(CCN3CCN(c4ccc5c(c4)n(C)c(=O)n5C4CCC(=O)NC4=O)CC3)CC2)nn2c(C(=O)N[C@@H]3C[C@@H]3F)cnc12` (stereo partly drawn) [Example K531], for which the figures for the DC50 at TYK2 [1], at TYK2 [2] and at TYK2 [3] were greater than 0.1 µM, greater than 0.1 µM and 0.001 to 0.01 µM, respectively.

Broadly, the DC50 is the concentration at which degradation of the target reaches its halfway point.
